The assay deals with Cdk2/Cyclin A (Homo sapiens, UniProt P24941). The experiment in a line: Inhibition assay of Cdk2/Cyclin A activity (SPA). Type of assay: biochemical. The note with it: 10 μM ATP, biotinylated histone H1 substrate, read-out: IC50 against Cdk2/Cyclin A. As to the method: The inhibiting activity of putative Cdk/Cyclin inhibitors and the potency of selected compounds is determined through a method of assay based on the use of the SPA technology (Amersham Pharmacia Biotech).
The assay consists of the transfer of radioactivity labelled phosphate moiety by the kinase to a biotinylated substrate. The resulting 33P-labelled biotinylated product is allowed to bind to streptavidin-coated SPA beads (biotin capacity 130 pmol/mg), and light emitted is measured in a scintillation counter.
Inhibition Assay of Cdk2/Cyclin A Activity
Kinase reaction: 4 μM in house biotinylated histone H1 (Sigma # H-5505) substrate, 10 μM ATP (0.1 microCi P^33γ-ATP), 4.2 ng Cdk2/Cyclin A complex, inhibitor in a final volume of 30 μl buffer (TRIS HCl 10 mM pH 7.5, MgCl2 10 mM, DTT 7.5 mM+0.2 mg/ml BSA) were added to each well of a 96 U bottom. After 30 min at r.t. incubation, reaction was stopped by 100 μl PBS+32 mM EDTA+0.1% Triton X-100+500 μM ATP, containing 1 mg SPA beads. Then a volume of 110 μl is transferred to Optiplate. After 20 min. incubation for substrate capture, 100 μl 5M CsCl were added to allow statification of beads to the top of the plate and let stand 4 hours before radioactivity counting in the Top-Count instrument
IC50 determination: inhibitors were tested at different concentrations ranging from 0.0015 to 10 μM. Experimental data were analyzed by the computer program GraphPad Prizm using the four parameter logistic equation: y=bottom+(top−bottom)/(1+10ˆ((log IC50−x)*slope)) where x is the logarithm of the inhibitor concentration, y is the response; y starts at bottom and goes to top with a sigmoid shape. Ki Calculation: Experimental method: Reaction was carried out in buffer (10 mM Tris, pH 7.5, 10 mM MgCl2, 0.2 mg/ml BSA, 7.5 mM DTI) containing 3.7 nM enzyme, histone and ATP (constant ratio of cold/labeled ATP 1/3000). Reaction was stopped with EDTA and the substrate captured on phosphomembrane (Multiscreen 96 well plates from Millipore). After extensive washing, the multiscreen plates are read on a top counter. Control (time zero) for each ATP and histone concentrations was measured. Experimental design: Reaction velocities are measured at different four ATP, substrate (histone) and inhibitor concentrations. An […] concentration matrix was designed around the respective ATP and substrate Km values, and the inhibitor IC50 values (0.3, 1, 3, 9 fold the Km or IC50 values). A preliminary time course experiment in the absence of inhibitor and at the different ATP and substrate concentrations allow the selection of a single endpoint time (10 min) in the linear range of the reaction for the Ki determination experiment. Kinetic parameter estimates: Kinetic parameters were estimated by simultaneous nonlinear least-square regression using [Eq.1] […]
For “3-(4-tert-butyl-benzamido)-5-[(2-propylamino)pyrimidin-4-yl]-4,6-dihydropyrrolo[3,4-c]pyrazole”, the IC50 stood at 0.22 µM. In the case of `CC(C)(C)c1ccc(C(=O)Nc2n[nH]c3c2CN(c2ccnc(N4CCOCC4)n2)C3)cc1` [3-(4-tert-butyl-benzamido)-5-[2-(N-morpholino)pyrimidin-4-yl]-4,6-dihydropyrrolo[3,4-c]pyrazole], the IC50 is 0.34 µM. Take `CC(C)(C)c1ccc(C(=O)Nc2[nH]nc3c2CN(C(=O)c2cnccn2)C3)cc1` [N-{5-(pyrazine-2-carbonyl)-4,6-dihydropyrrolo[3,4-c]pyrazol-3-yl}-4-tertbutylbenzamide]: the IC50 was determined as 2.5 µM.

Take `CC(C)(C)c1ccc(C(=O)Nc2[nH]nc3c2CN(C(=O)c2ccncc2)C3)cc1` [N-{5-(pyridine-4-carbonyl)-4,6-dihydropyrrolo[3,4-c]pyrazol-3-yl}-4-tertbutylbenzamide]: the IC50 is > 10 µM.

For the origin of these results see patent US20070037790A1, “Bicyclo-pyrazole derivatives active as kinase inhibitors, process for their preparation and pharmaceutical compositions comprising them” (priority 2003, published 2007).
